Test results taken from patent US11739070B2, “C5A receptor modulators” (IDORSIA PHARMACEUTICALS LTD, priority 2018, dated 2023).

biological target: T1, C5AR1 (Homo sapiens, UniProt P21730); test: hC5a DISCO IC50 assay (PathHunter beta-arrestin, antagonist mode); type: cell-based; details: CHO-K1 C5AR1 beta-arrestin cell line; antagonist vs 1-10 nM C5a agonist; geometric mean values; read-out: C5aR IC50
T1 construct: host or cells: CHO-K1
T1 sequence (P21730 1-350): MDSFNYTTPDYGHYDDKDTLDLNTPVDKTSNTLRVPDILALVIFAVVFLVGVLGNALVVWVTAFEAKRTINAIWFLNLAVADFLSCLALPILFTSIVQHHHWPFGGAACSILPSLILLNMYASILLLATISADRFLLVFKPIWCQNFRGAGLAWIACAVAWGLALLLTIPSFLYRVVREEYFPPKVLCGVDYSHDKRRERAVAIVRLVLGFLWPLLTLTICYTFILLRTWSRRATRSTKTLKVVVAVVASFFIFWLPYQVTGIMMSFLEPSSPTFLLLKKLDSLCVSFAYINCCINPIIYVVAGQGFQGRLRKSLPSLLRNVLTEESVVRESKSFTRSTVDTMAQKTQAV
Procedure, shortened: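 Antagonist added first, then 1-10 nM C5a agonist; cells incubated 1.5 h at 37 °C. Beta-arrestin signal developed with PathHunter detection reagent, 45 min at RT. IC50 in nmol/l from serial antagonist dilutions, reported as geometric mean of several measurements.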

SMILES | IC50 [µM]
COc1ccnnc1Cn1c(=O)n([C@@H]2CCN(c3c(C)cccc3F)C2)c2cccc(OC)c21 [Example 95, 1-[(R)-1-(2-Fluoro-6-methyl-phenyl)-pyrrolidin-3-yl]-4-methoxy-3-(4-methoxy-pyridazin-3-ylmethyl)-1,3-dihydro-benzoimidazol-2-one] | 0.191
COc1cccc2c1n(Cc1nccnc1C(F)(F)F)c(=O)n2C1CCN(c2c(F)cccc2C#N)CC1 [Example 96, 3-Fluoro-2-{4-[4-methoxy-2-oxo-3-(3-trifluoromethyl-pyrazin-2-ylmethyl)-2,3-dihydro-benzoimidazol-1-yl]-piperidin-1-yl}-benzonitrile] | 0.231
COc1nccnc1Cn1c(=O)n(C2CCN(c3c(F)cccc3C#N)CC2)c2cccc(OC)c21 [Example 97, 3-Fluoro-2-{4-[4-methoxy-3-(3-methoxy-pyrazin-2-ylmethyl)-2-oxo-2,3-dihydro-benzoimidazol-1-yl]-piperidin-1-yl}-benzonitrile] | 1.35
COC(=O)c1cccc2c1n(Cc1ccccc1C(F)(F)F)c(=O)n2[C@@H]1CCN(c2c(F)cccc2C#N)C1 [Example 98, 1-[(R)-1-(2-Cyano-6-fluoro-phenyl)-pyrrolidin-3-yl]-2-oxo-3-(2-trifluoromethyl-benzyl)-2,3-dihydro-1H-benzoimidazole-4-carboxylic acid methyl ester] | 0.165
CNC(=O)c1cccc2c1n(Cc1ccccc1C(F)(F)F)c(=O)n2[C@@H]1CCN(c2c(F)cccc2C#N)C1 [Example 99, 1-[(R)-1-(2-Cyano-6-fluoro-phenyl)-pyrrolidin-3-yl]-2-oxo-3-(2-trifluoromethyl-benzyl)-2,3-dihydro-1H-benzoimidazole-4-carboxylic acid methylamide] | 0.391
N#Cc1cccc(F)c1N1CC[C@@H](n2c(=O)n(Cc3ccccc3C(F)(F)F)c3c(C(N)=O)cccc32)C1 [Example 100, 1-[(R)-1-(2-Cyano-6-fluoro-phenyl)-pyrrolidin-3-yl]-2-oxo-3-(2-trifluoromethyl-benzyl)-2,3-dihydro-1H-benzoimidazole-4-carboxylic acid amide] | 1.43
CN(C)C(=O)c1cccc2c1n(Cc1ccccc1C(F)(F)F)c(=O)n2[C@@H]1CCN(c2c(F)cccc2C#N)C1 [Example 101, 1-[(R)-1-(2-Cyano-6-fluoro-phenyl)-pyrrolidin-3-yl]-2-oxo-3-(2-trifluoromethyl-benzyl)-2,3-dihydro-1H-benzoimidazole-4-carboxylic acid dimethylamide] | 1.58
N#Cc1cccc(F)c1N1CC[C@@H](n2c(=O)n(Cc3ccccc3C(F)(F)F)c3c(CO)cccc32)C1 [Example 102, 3-Fluoro-2-{(R)-3-[4-hydroxymethyl-2-oxo-3-(2-trifluoromethyl-benzyl)-2,3-dihydro-benzoimidazol-1-yl]-pyrrolidin-1-yl}-benzonitrile] | 0.759
CNCc1cccc(F)c1N1CC[C@@H](n2c(=O)n(Cc3ccccc3C(F)(F)F)c3c(OC)cccc32)C1 [Example 103, 1-[(R)-1-(2-Fluoro-6-methylaminomethyl-phenyl)-pyrrolidin-3-yl]-4-methoxy-3-(2-trifluoromethyl-benzyl)-1,3-dihydro-benzoimidazol-2-one] | 0.669
COc1ncnc2c1n(Cc1ccccc1C(F)(F)F)c(=O)n2[C@@H]1CCN(c2c(F)cccc2C#N)C1 [Example 104, 3-Fluoro-2-{(R)-3-[6-methoxy-8-oxo-7-(2-trifluoromethyl-benzyl)-7,8-dihydro-purin-9-yl]-pyrrolidin-1-yl}-benzonitrile] | 0.863
COc1ccccc1Cn1c(=O)n([C@@H]2CCN(c3c(F)cccc3C#N)C2)c2ncnc(OC)c21 [Example 105, 3-Fluoro-2-{(R)-3-[6-methoxy-7-(2-methoxy-benzyl)-8-oxo-7,8-dihydro-purin-9-yl]-pyrrolidin-1-yl}-benzonitrile] | 4.48
COc1cccc2c1n(Cc1ccccc1C(F)(F)F)c(=O)n2[C@@H]1CCN(c2c(F)cccc2CN(C)C)C1 [Example 106, 1-[(R)-1-(2-Dimethylaminomethyl-6-fluoro-phenyl)-pyrrolidin-3-yl]-4-methoxy-3-(2-trifluoromethyl-benzyl)-1,3-dihydro-benzoimidazol-2-one] | 0.227
COc1cccc2c1n(Cc1ccccc1C(F)(F)F)c(=O)n2[C@@H]1CCN(c2c(F)cccc2CN(C)CCO)C1 [Example 107, 1-[(R)-1-(2-Fluoro-6-{[(2-hydroxy-ethyl)-methyl-amino]-methyl}-phenyl)-pyrrolidin-3-yl]-4-methoxy-3-(2-trifluoromethyl-benzyl)-1,3-dihydro-benzoimidazol-2-one] | 1.32
COc1cccc2c1n(Cc1ccccc1C(F)(F)F)c(=O)n2[C@@H]1CCN(c2c(F)cccc2CN2CCC2)C1 [Example 108, 1-[(R)-1-(2-Azetidin-1-ylmethyl-6-fluoro-phenyl)-pyrrolidin-3-yl]-4-methoxy-3-(2-trifluoromethyl-benzyl)-1,3-dihydro-benzoimidazol-2-one] | 0.36
COc1ccccc1Cn1c(=O)n([C@@H]2CCN(c3c(F)cccc3C#N)C2)c2cccc(OC)c21 [Example 109, 3-Fluoro-2-{(R)-3-[4-methoxy-3-(2-methoxy-benzyl)-2-oxo-2,3-dihydro-benzoimidazol-1-yl]-pyrrolidin-1-yl}-benzonitrile] | 0.061
COc1ccccc1Cn1c(=O)n([C@@H]2CCN(c3c(C)cccc3F)C2)c2cccc(OC)c21 [Example 110, 1-[(R)-1-(2-Fluoro-6-methyl-phenyl)-pyrrolidin-3-yl]-4-methoxy-3-(2-methoxy-benzyl)-1,3-dihydro-benzoimidazol-2-one] | 0.006
COc1cccc2c1n(Cc1nccnc1C(F)(F)F)c(=O)n2[C@@H]1CCN(c2c(F)cccc2C#N)C1 [Example 111, 3-Fluoro-2-{(R)-3-[4-methoxy-2-oxo-3-(3-trifluoromethyl-pyrazin-2-ylmethyl)-2,3-dihydro-benzoimidazol-1-yl]-pyrrolidin-1-yl}-benzonitrile] | 0.264
COc1nccnc1Cn1c(=O)n([C@@H]2CCN(c3c(F)cccc3C#N)C2)c2cccc(OC)c21 [Example 112, 3-Fluoro-2-{(R)-3-[4-methoxy-3-(3-methoxy-pyrazin-2-ylmethyl)-2-oxo-2,3-dihydro-benzoimidazol-1-yl]-pyrrolidin-1-yl}-benzonitrile] | 0.511
COc1ncncc1Cn1c(=O)n(C2CCN(c3c(F)cccc3C#N)CC2)c2cccc(OC)c21 [Example 113, 3-Fluoro-2-{4-[4-methoxy-3-(4-methoxy-pyrimidin-5-ylmethyl)-2-oxo-2,3-dihydro-benzoimidazol-1-yl]-piperidin-1-yl}-benzonitrile] | 2.24
COc1ncncc1Cn1c(=O)n([C@@H]2CCN(c3c(F)cccc3C#N)C2)c2cccc(OC)c21 [Example 114, 3-Fluoro-2-{(R)-3-[4-methoxy-3-(4-methoxy-pyrimidin-5-ylmethyl)-2-oxo-2,3-dihydro-benzoimidazol-1-yl]-pyrrolidin-1-yl}-benzonitrile] | 1.54
COc1cccc2c1n(Cc1ccccc1C(F)(F)F)c(=O)n2[C@@H]1CCN(c2c(F)cccc2CN2CCOCC2)C1 [Example 115, 1-[(R)-1-(2-Fluoro-6-morpholin-4-ylmethyl-phenyl)-pyrrolidin-3-yl]-4-methoxy-3-(2-trifluoromethyl-benzyl)-1,3-dihydro-benzoimidazol-2-one] | 0.021
COc1cccc2c1n(Cc1ccccc1C(F)(F)F)c(=O)n2[C@@H]1CCN(c2c(F)cccc2CN2CCCC2)C1 [Example 116, 1-[(R)-1-(2-Fluoro-6-pyrrolidin-1-ylmethyl-phenyl)-pyrrolidin-3-yl]-4-methoxy-3-(2-trifluoromethyl-benzyl)-1,3-dihydro-benzoimidazol-2-one] | 0.165
COc1cccc2c1n(Cc1cncnc1C(F)(F)F)c(=O)n2C1CCN(c2c(F)cccc2C#N)CC1 [Example 117, 3-Fluoro-2-{4-[4-methoxy-2-oxo-3-(4-trifluoromethyl-pyrimidin-5-ylmethyl)-2,3-dihydro-benzoimidazol-1-yl]-piperidin-1-yl}-benzonitrile] | 0.308
Cc1cccc(C)c1N1CC[C@@H](n2c(=O)n(Cc3ccccc3C(F)(F)F)c3c(NCCO)nccc32)C1 [Example 118, 1-[(R)-1-(2,6-Dimethyl-phenyl)-pyrrolidin-3-yl]-4-(2-hydroxy-ethylamino)-3-(2-trifluoromethyl-benzyl)-1,3-dihydro-imidazo[4,5-c]pyridin-2-one] | 0.201
Cc1cccc(C)c1N1CC[C@@H](n2c(=O)n(Cc3ccccc3C(F)(F)F)c3c(OCCO)nccc32)C1 [Example 119, 1-[(R)-1-(2,6-Dimethyl-phenyl)-pyrrolidin-3-yl]-4-(2-hydroxy-ethoxy)-3-(2-trifluoromethyl-benzyl)-1,3-dihydro-imidazo[4,5-c]pyridin-2-one] | 0.012
Cc1cccc(F)c1N1CC[C@@H](n2c(=O)n(Cc3ccccc3C(F)(F)F)c3c(OCCN(C)C)nccc32)C1 [Example 120, 4-(2-Dimethylamino-ethoxy)-1-[(R)-1-(2-fluoro-6-methyl-phenyl)-pyrrolidin-3-yl]-3-(2-trifluoromethyl-benzyl)-1,3-dihydro-imidazo[4,5-c]pyridin-2-one] | 0.659
Cc1cccc(F)c1N1CC[C@@H](n2c(=O)n(Cc3ccccc3C(F)(F)F)c3c(OCCN4CCOCC4)nccc32)C1 [Example 121, 1-[(R)-1-(2-Fluoro-6-methyl-phenyl)-pyrrolidin-3-yl]-4-(2-morpholin-4-yl-ethoxy)-3-(2-trifluoromethyl-benzyl)-1,3-dihydro-imidazo[4,5-c]pyridin-2-one] | 0.27
